Results from PMC11407758, “Integrated stress response (ISR) activation and apoptosis through HRI kinase by PG3 and other p53 pathway-restoring cancer therapeutics” (Oncotarget, 2024).

Key:
HT29 (R273H) = assay: Cell viability assay (CellTiterGlo), HT29; format: cell-based, human
Description: (§1) Figure 1 PG3 inhibits cell proliferation and growth in a p53-indepent manner. (A–E) Cell viability assay, dose response curves and IC50 value measurements in a panel of cancer cell lines and normal cells. Cells were treated with different concentrations of PG3, PG3-Oc (Oc), obatoclax (Ob), prodigiosin (P) or DMSO for 72 h. Luciferase activity was imaged by the IVIS Imaging System after treatment. Cell viability data were normalized to those of DMSO treatment control in each cell line and data analyses were performed using PRISM4 software. IC50 data are expressed as the mean ±SD (normal; n = 3).
as §1, with “2 p53-dependent inhibition of” for “1 PG3 inhibits”, “is only observed at specific concentrations. (A–J)” for “and growth in a p53-indepent manner. (A–E)”, “ZMC1, CP-313908, APR-246, Ellipticine, Nutalin-3a” for “PG3, PG3-Oc (Oc), obatoclax (Ob), prodigiosin (P)”
(§2) Cells were seeded in 96-well plates (6 × 10^3 cells/well). Cells were treated with different concentrations of compounds or dimethyl sulfoxide (DMSO) as a control for 72 hours. The cell viability was assessed by CellTiterGlo bioluminescent cell viability assay (Promega), following the manufacturer’s protocol. Bioluminescence imaging was measured using the IVIS imager. The percentage of cell viability (mean ± SEM) at each dose was calculated against the respective DMSO control. The IC50 values were determined from the sigmoidal dose-response curves using GraphPad Prism.

HCT116 (R175H) = assay: Cell viability assay (CellTiterGlo), HCT116 R175H; format: cell-based, human
Description: as §1
as §1, with “2 p53-dependent inhibition of” for “1 PG3 inhibits”, “is only observed at specific concentrations. (A–J)” for “and growth in a p53-indepent manner. (A–E)”, “ZMC1, CP-313908, APR-246, Ellipticine, Nutalin-3a” for “PG3, PG3-Oc (Oc), obatoclax (Ob), prodigiosin (P)”
as §2

[1] = tested on: HFF-1 (human foreskin fibroblast cell with wild-type p53); assay: Cell viability assay (CellTiterGlo), HFF-1 normal cells; format: cell-based; settings: 72 h, CellTiterGlo, normal cells; read-out: IC50 values, HFF-l (WT)
Description: as §1
as §1, with “2 p53-dependent inhibition of” for “1 PG3 inhibits”, “is only observed at specific concentrations. (A–J)” for “and growth in a p53-indepent manner. (A–E)”, “ZMC1, CP-313908, APR-246, Ellipticine, Nutalin-3a” for “PG3, PG3-Oc (Oc), obatoclax (Ob), prodigiosin (P)”
as §2

[2] = tested on: MRC5 (human lung fibroblast cell with wild-type p53); assay: Cell viability assay (CellTiterGlo), MRC5 normal cells; format: cell-based; settings: 72 h, read-out: IC50 values, MRC5 (WT)
Description: as §1
as §1, with “2 p53-dependent inhibition of” for “1 PG3 inhibits”, “is only observed at specific concentrations. (A–J)” for “and growth in a p53-indepent manner. (A–E)”, “ZMC1, CP-313908, APR-246, Ellipticine, Nutalin-3a” for “PG3, PG3-Oc (Oc), obatoclax (Ob), prodigiosin (P)”
as §2

[3] = tested on: SW480 cells carrying a p53-responsive luciferase reporter; assay: p53-responsive reporter assay; format: cell-based, human; settings: 30 μM, 15 hour time point
Description: SW480 cells carrying a p53-responsive luciferase reporter were used for assay of functional restoration of mutant p53. Cells were seeded in 96-well plates (5 × 10^4 cells/well) and were treated with compounds indicated for 6 and 15 h, respectively. Then, D-luciferin was added to each well with final concentration 100 μg/mL, and cells were imaged by using an IVIS Imaging System to detect luciferase activity.
p53-mutant SW480 human colon cancer cells, stably expressing a p53-responsive luciferase reporter, were used to assay functional restoration p53 pathway-dependent transcription in mutant p53-expressing tumor cells. Cells were seeded in 96-well plates (5 × 10^4 cells/well) and were treated with small-molecule compounds for 6 and 15 h, respectively. Then, D-luciferin was added to each well at a final concentration of 100 μg/mL, and cells were imaged by using an IVIS Imaging System (Xenogen) to detect luciferase activity.

ATF4 = assay: Western blot, ATF4 induction; format: cell-based, human; settings: 24 h
Description: (§3) Figure 4 Activation of ATF4 and up-regulation of typical p53 target genes. (A–E) Western blot analysis of p53 protein levels and upregulation of ATF4, PUMA, DR5 and p21. Cells were treated for 24 h with indicated compounds, concentrations and cell lines. Abbreviations: S.E.: Short exposure; L.E.: Long exposure.
(§4) After treatment, protein lysates were collected for Western blot analysis. A total of 15 μg of protein was used for SDS-PAGE. After primary and secondary antibody incubations, the signal was detected by a chemiluminescence detection kit, imaged by Syngene (Imgen Technologies). Antibodies for NAG-1 (GDF15) and P53 were from Santa Cruz Biotechnology; for caspase 8, cleaved caspase 8, caspase 9, caspase 3, cleavage PARP, eIF2α, p-eIF2α (Ser51), CHOP, ATF4, DR5, and PUMA were from Cell Signaling Technology. Noxa and p21 were from Calbiochem. Ran was from BD Biosciences.

p53 protein = assay: Western blot, p53 protein levels; format: cell-based, human
Description: Cells were treated for 24 h with indicated compounds, concentrations and cell lines. Abbreviations: S.E.: Short exposure; L.E.: Long exposure.
as §4

DR5 = assay: Western blot, DR5 induction; format: cell-based, human
Description: as §3, §4

PUMA = assay: Western blot, PUMA induction; format: cell-based, human
Description: as §3, §4

p21 = assay: Western blot, p21 induction; format: cell-based, human
Description: as §3, §4

[4] = tested on: GCN2, PKR, eIF2α, ATF4, CHOP in HT29 cells; assay: Western blot, ISR kinases / eIF2α / ATF4 / CHOP; format: cell-based, human
Description: Figure 7 PG3 induces upregulation of ATF4 through ISR via HRI. (A) HT29 cells were treated with PG3, GSK2606414, TG and ONC201 respectively, or co-treatment with PG3/GSK2606414, PG3/TG, and PG3/ONC201 for 15 h. (B) MEF, MEF^PERK−/− and MEF^GCN2−/− cells were treated with PG3 and ONC201 for 16 hours. (C) HT29 cells were transfected with siControl, siPKR, siHRI and siPKR/siHRI for 24 hours and then treated with PG3 for 16 hours. (D) HCT116 p53^−/− cells were transfected with siControl and siHRI for 24 hours and then treated with PG3 for 16 hours. (E) HCT116 p53^−/− cells were treated with PG3 and ONC201 for indicated times. (F) PANC1-sgCtrl, -sgHRI and -sgPKR cell lines were treated with PG3 and imipridones (ONC201, ONC206 and ONC212) for 16 hours. Western blot was performed using indicated antibodies. (G) Proposed model of PG3-induced cell apoptosis through HRI/ATF4/PUMA axis. Abbreviation: L.E.: Long exposure.
as §4
(§5) Supplementary Figure 2: ROS and NO are not responsible for PG3-induced HRI activation. (A, B) cells were pre-treated
(§6) with ZnPP, L-NMMA, SA and NAC for 2 hours respectively, and then ONC201 or PG3 was added to the medium for 24 hour treatment.
(§7) Western blot was performed using indicated antibodies.
(§8) (1 picture or pasted object on this page, not shown here)

HRI = tested on: HRI; set-up: method as in PMID 22827572; settings: cited from earlier work
ALAS1, UROD = assay: Western blot, heme biosynthesis enzymes; format: cell-based, human
Description: Figure 8 Inhibition of heme biosynthesis leads to upregulation of ATF4. (A) HT29 cells were treated with SA and ONC201 for 20 hours. Western blotting was performed using the indicated antibodies. (B) HT29 cells were transfected with siCtrl, siHRI, siClpX, siALAS1, siClpX/siALAS1 and siClpX/siALAS1/siHRI for 48 hours. (C) HT29 cells were transfected with siCtrl, siLonP1, siClpP for 24 or 48 hours respectively, and then treated with ONC201 for 24 hours. (D) Proposed model of ONC201-induced cell apoptosis through ClpP/ALAS1/HRI/ATF4 axis. (E, F) Silencing of ClpP in HCT116 p53^−/− and MDA-MB-468 cells and then treated with PG3, PG3-Oc and ONC201. Western blot was performed using indicated antibodies.
as §4, §5, §6, §7, §8

COc1ccc(/C=C/c2nc(NCCCN(C)C)c3ccccc3n2)cc1 [CP-31398]
IC50 (HT29 (R273H); 72 h, CellTiterGlo): 647 nM | inhibition of cell viability (HT29 (R273H); HT29, 0.04 μM): potently inhibited | fold more potency in HT29 than in HFF-1 (HT29 (R273H); HT29 vs HFF-1): 12.2 fold | fold more potency in HT29 than in MRC5 (HT29 (R273H); HT29 vs MRC5): 9.1 fold | IC50 (HCT116 (R175H); 72 h, CellTiterGlo): 9.58 µM | selective inhibition among HCT116 isogenic cell lines (HCT116 (R175H); HCT116-R175H compared to HCT116 (WT) and HCT116 p53–/–, 10 μM): selective inhibition | IC50 [1]: 7.92 µM | IC50 [2]: 5.92 µM | p53-responsive reporter activity [3]: able to activate the reporter | upregulation of ATF4 (ATF4; HT29 and TOV-112D, compared to PG3 and PG3-Oc): more potently induces upregulation of ATF4 | upregulation of ATF4 (ATF4; three isogenic HCT116 cell lines): does not upregulate ATF4 | wild-type p53 protein level (p53 protein; HCT116, 24 h): marginal stabilization | endogenous mutant p53 R273H protein level (p53 protein; HT29, 24 h): stabilizes | endogenous mutant p53 R175H protein level (p53 protein; TOV-112D, 24 h): marginally destabilizes | exogenous mutant p53 R175H protein level (p53 protein; engineered HCT116-R175H cells, 24 h): no effects | upregulation of DR5 (DR5; HCT116 (p53 wild-type), 24 h): does not upregulate DR5 | upregulation of DR5 (DR5; HCT116 p53-R175H, 24 h): does not upregulate DR5 | upregulation of DR5 (DR5; HCT116 p53–/–, 24 h): does not upregulate DR5 | upregulation of DR5 (DR5; HT29, 24 h): mildly upregulates DR5 | upregulation of DR5 (DR5; TOV-112D, 24 h): upregulates DR5 in a comparable manner to PG3 and PG3-Oc | upregulation of PUMA (PUMA; HCT116 (p53 wild-type), 24 h): induces PUMA expression | upregulation of PUMA (PUMA; HCT116 p53-R175H, 24 h): barely | upregulation of PUMA (PUMA; HCT116 p53–/–, 24 h): barely | upregulation of PUMA (PUMA; HT29, 24 h): induces PUMA expression | upregulation of PUMA (PUMA; TOV-112D, 24 h): barely | upregulation of p21 (p21; HCT116 (p53 wild-type), 24 h): significantly | upregulation of p21 (p21; HCT116 p53-R175H, 24 h): barely | upregulation of p21 (p21; HCT116 p53–/–, 24 h): barely | upregulation of p21 (p21; HT29, 24 h): significantly | upregulation of p21 (p21; TOV-112D, 24 h): upregulates p21 strongly

Cn1cc(-c2ccc3c(c2)CCN3C(=O)Cc2cccc(C(F)(F)F)c2)c2c(N)ncnc21 [GSK2606414, 7-methyl-5-(1-{[3-(trifluoromethyl)phenyl]acetyl}-2,3-dihydro-1H-indol-5-yl)-7H-pyrrolo[2,3-d]pyrimidin-4-amine]
effect on ONC201-induced upregulation of ATF4 and CHOP ([4]; HT29, co-treatment with ONC201): significantly attenuates | effect on PG3-induced eIF2α phosphorylation, ATF4 and CHOP upregulation ([4]; HT29, co-treatment with PG3, 15 h): does not block | effect on TG-induced upregulation of ATF4 and CHOP ([4]; HT29, co-treatment with thapsigargin): abolishes | IC50 (HRI): 420 nM

Cc1ccccc1CN1C(=O)C2=C(CCN(Cc3ccccc3)C2)N2CCN=C12 [ONC201]
phosphorylation of GCN2 and PKR [4]: does not increase phosphorylation | ALAS1 protein level (ALAS1, UROD): potent downregulation and inhibition of ALAS1 | UROD protein levels (ALAS1, UROD): do not have any effects
